Biological target: T1, human RXFP1 (Homo sapiens, UniProt Q9HBX9)
T1 sequence (Q9HBX9 1-757): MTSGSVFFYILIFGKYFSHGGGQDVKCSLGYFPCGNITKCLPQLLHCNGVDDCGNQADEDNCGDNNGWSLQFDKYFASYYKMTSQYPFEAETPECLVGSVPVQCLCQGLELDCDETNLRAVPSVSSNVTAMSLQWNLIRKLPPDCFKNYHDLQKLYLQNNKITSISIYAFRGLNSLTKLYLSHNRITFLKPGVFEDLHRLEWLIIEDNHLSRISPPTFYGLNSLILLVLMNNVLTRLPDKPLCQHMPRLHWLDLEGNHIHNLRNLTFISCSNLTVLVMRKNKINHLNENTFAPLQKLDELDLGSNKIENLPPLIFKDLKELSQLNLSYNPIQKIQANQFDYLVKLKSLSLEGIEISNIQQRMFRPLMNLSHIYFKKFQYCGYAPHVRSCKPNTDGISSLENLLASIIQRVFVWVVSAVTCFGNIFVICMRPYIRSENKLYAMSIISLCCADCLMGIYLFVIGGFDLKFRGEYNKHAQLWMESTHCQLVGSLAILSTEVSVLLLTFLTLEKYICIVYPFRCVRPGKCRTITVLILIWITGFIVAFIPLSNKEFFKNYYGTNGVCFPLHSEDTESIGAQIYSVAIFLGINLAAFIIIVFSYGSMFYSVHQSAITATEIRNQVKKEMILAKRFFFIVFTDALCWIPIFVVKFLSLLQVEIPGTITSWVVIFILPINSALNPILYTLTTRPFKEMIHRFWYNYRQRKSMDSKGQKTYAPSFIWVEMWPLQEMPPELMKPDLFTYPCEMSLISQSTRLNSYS
Experiment: RXFP1 Hu cAMP (Test A)
Type: cell-based
Set-up: expressed in transfected cells; host or cells: Jump-In T-REx CHO-K1 cells (ThermoFisher), induced with 10 ng/ml doxycycline for 24 h
Details: RXFP1 Hu cAMP; for EC50: read-out: Test A EC50
In short: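 Doxycycline-induced (10 ng/ml, 24 h) CHO-K1 cells stably expressing human RXFP1; cAMP read by competitive HTRF after 2 h at room temperature, with 0.5 mM IBMX final.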

Row | Molecule | Test A Sinf [%] | EC50 [nM]
1 | (1R,4s)-4-(2-Fluoro-5-(((3S*,4S*)-4-((4-fluoro-3-(pentafluoro-λ6-sulfaneyl)phenyl)carbamoyl)tetrahydro-2H-pyran-3-yl)carbamoyl)-4-methoxyphenoxy)-1-methylcyclohexane-1-carboxylic acid [Example 575] | 101 | –
2 | CCC(CC)NC(=O)c1ccc(C)cc1NC(=O)c1cc(O[C@H]2CC[C@@](C)(C(=O)O)CC2)c(C#N)cc1OC [Example 168] | 121 | > 2200
3 | COc1cc(F)c(-c2ccc(O)c(C(=O)O)c2)cc1C(=O)N[C@H]1[C@@H]2CC[C@@H](C2)[C@H]1C(=O)Nc1cccc(S(=O)(=O)C(F)(F)F)c1 (single isomer, unassigned) [Example 557] | 68 | –
4 | COc1cc(C#N)c(OC2CCC(C)(C(=O)O)CC2)cc1C(=O)NC1C(C(=O)NCC2(C)CCC2)C2CCC1N2CCC(F)(F)F (single isomer, unassigned) [Example 537, (1R,4s)-4-(2-Cyano-4-methoxy-5-(((1S*,2S*,3R*,4R*)-3-(((1-methylcyclobutyl)methyl)carbamoyl)-7-(3,3,3-trifluoropropyl)-7-azabicyclo[2.2.1]heptan-2-yl)carbamoyl)phenoxy)-1-methylcyclohexane-1-carboxylic acid] | 77 | 6000
5 | COc1cc(C#N)c(O[C@H]2CC[C@@](C)(C(=O)O)CC2)cc1C(=O)NC1CCC1C(=O)NCC1(C)CCC1 (single isomer, unassigned) [Example 572, (1R,4s)-4-(2-Cyano-4-methoxy-5-(((1S*,2R*)-2-(((1-methylcyclobutyl)methyl)carbamoyl)cyclobutyl)carbamoyl)phenoxy)-1-methylcyclohexane-1-carboxylic acid] | – | > 40000
6 | COc1cc(F)c(-c2ccc(C(=O)O)cc2)cc1C(=O)N[C@H]1[C@@H](C(=O)Nc2cc(F)cc(C#N)c2)[C@@H]2C=C[C@H]1C2 (racemic) [Example 310] | – | > 40000
7 | COc1cc(F)c(OC2CCC(C)(C(=O)O)CC2)cc1C(=O)NC1CC(OC)CC1C(=O)Nc1cccc(S(=O)(=O)C(F)(F)F)c1 (single isomer, unassigned) [Example 522, (1R,4s)-4-(2-Fluoro-4-methoxy-5-(((1S*,2R*,4S*)-4-methoxy-2-((3-((trifluoromethyl)sulfonyl)phenyl)carbamoyl)cyclopentyl)carbamoyl)phenoxy)-1-methylcyclohexane-1-carboxylic acid] | – | > 40000
8 | COc1cc(F)c(O[C@H]2CC[C@H](S(N)(=O)=O)CC2)cc1C(=O)N[C@@H]1[C@@H]2CC[C@@H](C2)[C@@H]1C(=O)Nc1cccc(S(=O)(=O)C(F)(F)F)c1 [Example 462, (1S,2S,3R,4R)-3-(4-fluoro-2-methoxy-5-(((1r,4R)-4-sulfamoylcyclohexyl)oxy)benzamido)-N-(3-((trifluoromethyl)sulfonyl)phenyl)bicyclo[2.2.1]heptane-2-carboxamide] | 125 | –
9 | COc1cc(F)c(OC2CCC(CO)(C(=O)O)CC2)cc1C(=O)N[C@H]1[C@@H](C(=O)NCC2(C)CCC2)[C@H]2CC[C@@H]1O2 (relative stereo) [Example 533, (1R,4s)-4-(2-Fluoro-4-methoxy-5-(((1S*,2S*,3R*,4R*)-3-(((1-methylcyclobutyl)methyl)carbamoyl)-7-oxabicyclo[2.2.1]heptan-2-yl)carbamoyl)phenoxy)-1-(hydroxymethyl)cyclohexane-1-carboxylic acid] | – | > 40000
10 | COc1cc(F)c(OC[C@H]2C[C@H](C(=O)O)C2)cc1C(=O)N[C@@H]1[C@@H]2CC[C@@H](C2)[C@@H]1C(=O)Nc1cccc(S(=O)(=O)C(F)(F)F)c1 [Example 472, (1R,3r)-3-((2-Fluoro-4-methoxy-5-(((1R,2R,3S,4S)-3-((3-((trifluoromethyl)sulfonyl)phenyl)carbamoyl)bicyclo[2.2.1]heptan-2-yl)carbamoyl)phenoxy)methyl)cyclobutane-1-carboxylic acid] | 91 | –
11 | COc1cc(F)c(-c2cncc(C(=O)O)c2)cc1C(=O)N[C@H]1[C@@H](C(=O)Nc2cccc(S(=O)(=O)C(F)(F)F)c2)[C@@H]2C=C[C@H]1C2 (racemic) [Example 228] | 110 | –
12 | COc1cc(F)c(O[C@H]2CC[C@@](C)(C(=O)O)CC2)cc1C(=O)N[C@@H]1[C@H]2CC[C@H](C2)[C@@H]1C(=O)NCC(C)(C)OC [Example 610] | 105 | –

Continued by falling EC50, values first:

Row | Test A Sinf [%] | EC50 [nM] | Molecule
13 | 107 | 700 | COc1cc(F)c(OC2CCC(CO)(C(=O)O)CC2)cc1C(=O)NC1CC(OC)CC1C(=O)NCC1(C)CCC1 (single isomer, unassigned) [Example 551, (1R,4s)-4-(2-Fluoro-4-methoxy-5-(((1S*,2R*,4R*)-4-methoxy-2-(((1-methylcyclobutyl)methyl)carbamoyl)cyclopentyl)carbamoyl)phenoxy)-1-(hydroxymethyl)cyclohexane-1-carboxylic acid]
14 | 99 | 560 | COc1cc(C#N)c(O[C@H]2CC[C@@](C)(C(=O)O)CC2)cc1C(=O)N[C@@H]1[C@H]2CC[C@H](C2)[C@@H]1C(=O)N[C@@H](C)C(C)(C)C [Example 119]
15 | 106 | 340 | COc1cc(C#N)c(O[C@H]2CC[C@@](C)(C(=O)O)CC2)cc1C(=O)N[C@@H]1[C@H]2CC[C@H](C2)[C@@H]1C(=O)NC(C)(C)c1ccccc1 [Example 108]
16 | 114 | 260 | COc1cc(F)c(-c2ccc(C(=O)O)cc2)cc1C(=O)N[C@@H]1[C@@H]2CC[C@@H](C2)[C@@H]1C(=O)Nc1cccc(S(=O)(=O)C(F)(F)F)c1 (racemic) [Example 303]
17 | 112 | 260 | COc1cc(F)c(OCc2ccc(C(=O)O)cc2)cc1C(=O)N[C@@H]1[C@H]2CC[C@H](C2)[C@@H]1C(=O)Nc1cccc(S(=O)(=O)C(F)(F)F)c1 [Example 438]
18 | 86 | 200 | COc1cc(F)c(O[C@H]2CC[C@@](C)(C(=O)O)CC2)cc1C(=O)N[C@@H]1CCOC[C@@H]1C(=O)Nc1cccc(S(=O)(=O)C(F)(F)F)c1 (racemic) [Example 341]
19 | 92 | 160 | COc1cc(F)c(O[C@H]2CC[C@@](C)(C(=O)O)CC2)cc1C(=O)N[C@@H]1[C@H]2CC[C@H](C2)[C@@H]1C(=O)N[C@H]1CCCN(S(=O)(=O)C(F)(F)F)C1 [Example 607]
20 | 118 | 110 | COc1cc(C#N)c(O[C@H]2CC[C@@](C)(C(=O)O)CC2)cc1C(=O)Nc1cc(Cl)ccc1C(=O)NCC1(c2ccccc2)CC1 [Example 158]
21 | 118 | 88 | COc1cc(C#N)c(O[C@H]2CC[C@@](C)(C(=O)O)CC2)cc1C(=O)Nc1cc(Cl)ccc1C(=O)NCC1CCCCCC1 [Example 157, (1s,4s)-4-(5-((5-Chloro-2-((cycloheptylmethyl)carbamoyl)phenyl)carbamoyl)-2-cyano-4-methoxyphenoxy)-1-methylcyclohexane-1-carboxylic acid]
22 | 125 | 78 | COc1cc(C#N)c(O[C@H]2CC[C@@](C)(C(=O)O)CC2)cc1C(=O)Nc1cc(Cl)ccc1C(=O)NC[C@H]1C[C@@H](C)C1 [Example 159]
23 | 114 | 70 | CC[C@]1(C(=O)O)CC[C@@H](Oc2cc(C(=O)N[C@@H]3[C@H]4CC[C@H](C4)[C@@H]3C(=O)NCC(C)(C)C)c(OC)cc2F)CC1 [Example 386]
24 | 95 | 26 | COc1cc(F)c(-c2ccc([C@@H]3C[C@H]3C(=O)O)nc2)cc1C(=O)N[C@@H]1[C@H]2CC[C@H](C2)[C@@H]1C(=O)Nc1cccc(S(=O)(=O)C(F)(F)F)c1 (single isomer, unassigned) [Example 262, (1R*,2R*)-2-(5-(2-Fluoro-4-methoxy-5-(((1S,2R,3S,4R)-3-((3-((trifluoromethyl)sulfonyl)phenyl)carbamoyl)bicyclo[2.2.1]heptan-2-yl)carbamoyl)phenyl)pyridin-2-yl)cyclopropane-1-carboxylic acid]
25 | 94 | 14 | COc1cc(F)c(O[C@H]2C[C@@](C)(C(=O)O)C2)cc1C(=O)N[C@@H]1[C@@H]2CC[C@@H](C2)[C@@H]1C(=O)Nc1cccc(S(=O)(=O)C(F)(F)F)c1 [Example 505, (1S,3s)-3-(2-Fluoro-4-methoxy-5-(((1R,2R,3S,4S)-3-((3-((trifluoromethyl)sulfonyl)phenyl)carbamoyl)bicyclo[2.2.1]heptan-2-yl)carbamoyl)phenoxy)-1-methylcyclobutane-1-carboxylic acid]
26 | 95 | 11 | COc1cc(F)c(O[C@H]2CC[C@@](C)(C(=O)O)CC2)cc1C(=O)N[C@@H]1CCCCC[C@@H]1C(=O)Nc1cccc(S(=O)(=O)C(F)(F)F)c1 (racemic) [Example 354]
